The record followed here is publication PMC3298469, “A selective and potent CXCR3 antagonist SCH 546738 attenuates the development of autoimmune diseases and delays graft rejection” (BMC Immunology, 2012).

A short description of data set [1]: plasma pharmacokinetics after oral dosing in C57BL/6 mouse. Format: in vivo. To be noted: 30 mg/kg, 30 mpk oral in 0.4% methylcellulose, n = 3, read-out: AUC (0-24 hr). The protocol:
SCH 546738 was tested at concentrations of 1-10 μM against a panel of 49 GPCR binding assays. Most of the assays were not affected by SCH 546738 (Table 2). […] In addition, SCH 546738 has a favourable pharmacokinetic profile in rodents. […] Therefore, SCH 546738 is suitable for in vivo preclinical studies.
Figure 4 Plasma concentration versus time profiles of SCH 546738 in Lewis rat and C57BL/6 mouse. SCH 546738 in 0.4% methylcellulose was administered orally at 10 mg/kg (mpk) in Lewis rats or 30 mpk in C57BL/6 mice. The plasma concentration of SCH 546738 in the blood was calculated as the mean of 3 animals (n = 3) at indicated time points post-dose. Their AUC from 0 to 24 hr is also calculated and indicated.

The subject of another data set is Lewis rats. In words: rat experimental autoimmune encephalomyelitis. Type of data set: in vivo. As to conditions: p.o. in 0.4% methylcellulose, varying doses; data not shown. The protocol: Male Lewis rats challenged by injection of 50 µl (30 mg) of a guinea pig spinal cord homogenate in CFA into one footpad. The animals were treated starting at day 0 and oral dosing continued throughout the 3-week disease course, with varying amounts of SCH 546738 in 0.4% methylcellulose (MC) p.o. Animals were scored for disease severity: 0, no clinical signs; 1, flaccid tail; 2, hind limb weakness; 3, complete hind limb paralysis; 4, complete hind limb paralysis, forelimb weakness or paralysis; 5, death.
For CIA and EAE models, unpaired t-tests were performed using GraphPad InStat version 5.0.1 for Windows 98, GraphPad Software, San Diego California USA (http://www.graphpad.com). Statistical significance was evaluated by comparing the vehicle-treated group with the experimental group using unpaired t-test. Differences were considered significant when p values were <0.05.
Experimental autoimmune encephalomyelitis (EAE) is an animal model for human MS and development of disease is dependent on T cell infiltration into the CNS. In the murine model of EAE, SCH 546738 was tested in combination with interferon-β (IFN-β), a current first-line therapeutic for the amelioration of relapsing-remitting MS. C57BL/6 mice were primed by intravenous injection of pertussis toxin on day 0 and day 2. […] Disease progression was monitored by a scoring system as described in Methods. […]

A further data set deals with rat cardiac allograft. Put plainly: rat cardiac allograft transplant model (ACI to Lewis). To be noted: for mean survival time of the graft (MST): vehicle MST = 6 days. Type of data set: in vivo. Here is the method: Cardiac graft of ACI (RT1a) rats was heterotopically transplanted into the abdominal cavity of Lewis (RT1^l) recipients employing a microvascular surgical technique as described. The grafts were monitored daily by abdominal palpation, and the complete cessation of heart contraction was defined as graft rejection. SCH 546738 or 0.4% methylcellulose (vehicle) was orally administered at the indicated dose (0.2 ml) twice a day, starting on the day before transplantation until the day of graft rejection. To test whether SCH 546738 enhanced the effect of conventional immunosuppressive reagent, the recipients were received treatment with subtherapeutic dose of CsA for one week combined with treatment with SCH 546738. Graft survival was analyzed using the log-rank test. The parametric data were analyzed by Student t test (2-tailed) using GraphPad InStat version 5.0.1 for Windows 98, GraphPad Software, San Diego California USA (http://www.graphpad.com). p < 0.05 was considered statistically significant.
SCH 546738 was administered orally twice daily at 1, 5 and 15 mpk. […] Graft survival was analyzed using the log-rank test.

In the next data set the target is T1, CXCR3 (Homo sapiens, UniProt P49682).
T1 sequence (P49682 1-368): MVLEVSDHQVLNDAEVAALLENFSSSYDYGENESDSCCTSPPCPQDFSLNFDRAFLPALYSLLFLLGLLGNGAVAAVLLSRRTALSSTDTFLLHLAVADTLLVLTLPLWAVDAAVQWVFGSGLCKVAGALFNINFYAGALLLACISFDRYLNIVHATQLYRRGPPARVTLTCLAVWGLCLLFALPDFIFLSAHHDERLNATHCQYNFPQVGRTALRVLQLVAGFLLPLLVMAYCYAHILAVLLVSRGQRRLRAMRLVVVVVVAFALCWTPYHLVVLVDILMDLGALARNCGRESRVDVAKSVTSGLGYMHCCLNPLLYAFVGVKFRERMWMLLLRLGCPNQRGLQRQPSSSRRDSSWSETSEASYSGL
Put plainly: [125I]hCXCL10 competition binding (SPA, Ba/F3 membranes). More on the design: expressed in transfected cells; host or cells: mouse pro-B Ba/F3 cells (vector pME18Sneo), membrane preparation. The protocol: The cDNAs encoding human, mouse and rat CXCR3 were generated based on the published sequences: human (NM_001504), mouse (NM_009910), rat (NM_053415). The cDNAs for monkey and dog CXCR3 were cloned in the lab. All CXCR3 cDNAs were cloned into the mammalian expression vector pME18Sneo, a derivative of the SRα expression vector as described previously. IL-3-dependent mouse pro-B cells Ba/F3 were transfected to express CXCR3 of different species and cell membranes were prepared as described previously.
A scintillation proximity assay was used for radioligand competition binding assays as described previously with some modifications. For each assay point, 1 µg of membrane was preincubated for 1 hr with 300 µg wheat germ agglutinin (WGA) coated SPA beads (GE Healthcare Life Sciences) in the binding buffer (50 mM HEPES, 1 mM CaCl2, 5 mM MgCl2, 125 mM NaCl, 0.002% NaN3, 1.0% BSA) at room temperature. The beads were spun down, resuspended in the binding buffer and transferred to a 96-well Isoplate (Wallac, Gaithersburg, MD). The indicated concentrations of ^125I-hCXCL10, ^125I-hCXCL11 or ^35S-SCH 535390 with a series of titrations of SCH 546738 were added to start the reaction. After indicated reaction times at room temperature, the amount of radioactivity bound to the SPA beads was determined with a Wallac 1450 Microbeta counter (Wallac).
The ability of SCH 546738 to compete the binding of [^125I]hCXCL10 and [^125I]hCXCL11 to human CXCR3 receptor was determined using various concentrations of [^125I]hCXCL10 and [^125I]hCXCL11 as described in Methods. After 3 hr reaction, specific counts relative to input counts (B/B0) in the presence of increasing concentrations of SCH 546738 are plotted.

Where two headings read alike, the source gives them in different places.

`CC[C@H]1CN(c2nc(N)c(C(N)=O)nc2Cl)CCN1C1CCN(Cc2ccc(Cl)cc2)CC1` [SCH 546738]: the AUC(0-t) in data set [1] came to 12.6 µM·h. Also, in the data set on Lewis rats, the “effect on disease severity” value is given as “reduced the severity of the disease in a dose-dependent manner”. Further, the “mean survival time of the graft (MST)” value in the data set with rat cardiac allograft (1 mpk oral twice daily) was 11 days; in the data set with rat cardiac allograft (5 mpk oral twice daily), 14 days; with rat cardiac allograft (15 mpk oral twice daily), 14.9 days. Moreover, the “rate of permanent engraftment” value in the data set on rat cardiac allograft (5 mpk SCH 546738 twice daily in combination with 2.5 mpk cyclosporine) came out at 100%. The IC50 on CXCR3 (Human CXCR3, [125I]hCXCL10, read-out: IC50 (nM) (CXCL10)) was 0.8 nM; at CXCR3 ([125I-hIP-10] 100 pM, 3 hr reaction, read-out: IC50) it was 1 nM; on CXCR3 ([125I-hIP-10] 500 pM, 3 hr reaction, read-out: IC50) it was 1.2 nM; on CXCR3 ([125I]hCXCL10 25-500 pM, read-out: IC50 (constant, independent of input concentration)), roughly 1 nM; on CXCR3 (range over both radioligands CXCL10 and CXCL11, read-out: IC50 for displacing radiolabeled CXCL10 and CXCL11 from human CXCR3), 0.8 to 2.2 nM. Further, the “mode of antagonism of CXCL10 and CXCL11 binding to CXCR3” value at CXCR3 (both CXCL10 and CXCL11) was “non-competitive antagonist”.
